Results from patent US10344061B2, “Peptide exhibiting hair growth promoting activity and/or melanin production promoting activity and use thereof” (CAREGEN CO., LTD., priority 2016, dated 2019).
Ends that are not written are not given here.

Columns and labels:
Format in all cases: cell-based
[1] = tested on: Human hair follicle dermal papilla cells; test: DPC proliferation assay (MTT); conditions: serum-free medium, 3 days incubation, absorbance 550 nm, FIGS. 1a, 1b
Method: Human hair follicle dermal papilla cells were seeded at a density of 2×10^3 cells/well on 96-well plates, followed by incubation overnight. After changing into serum-free medium, the cells were treated with the peptides, followed by incubation for 3 days, and then the wells were treated with 4 mg/ml MTT solution, followed by reaction for 4 hours. The resulting formazan was solubilized with DNSO, and then the absorbance was measured at 550 nm using a microplate reader.

GSK3β = test: β-Catenin activity test: GSK3β phosphorylation; conditions: human hair follicle dermal papilla cells, 15 and 30 minutes, western blotting; FIGS. 2a, 2b
Bcl-2 = Bcl-2 western blotting; conditions: human hair follicle dermal papilla cells, 24 hours, FIGS. 4a, 4b
Method: (§1) Human hair follicle dermal papilla cells were seeded at a density of 4×10^5 cells/well on 6-well plate, followed by incubation overnight. After changing into serum-free medium, the cells were treated with the peptides, followed by incubation for 24 hours, and then the wells were harvested to prepare cell lysate. Western blotting was performed using Bcl-2 and Bax antibodies (Santa Cruz Biotechnology, USA) to compare protein expression patterns.

ERK = test: p-ERK western blotting; conditions: human hair follicle dermal papilla cells, 15 and 30 minutes, FIGS. 3a, 3b
Method: as §1, with “plates,” for “plate,”, “15 and 30 minutes,” for “24 hours,”, “prepare the” for “prepare”, “PI3K” for “Bcl-2 and Bax”, “Biotechnology, USA) and phospho-ERK antibody (Cell Signaling Technology,” for “Biotechnology,”

PI3K = PI3K western blotting; conditions: human hair follicle dermal papilla cells, 15 and 30 minutes, FIGS. 3a, 3b
Method: as §1, with “plates,” for “plate,”, “15 and 30 minutes,” for “24 hours,”, “prepare the” for “prepare”, “PI3K” for “Bcl-2 and Bax”, “Biotechnology, USA) and phospho-ERK antibody (Cell Signaling Technology,” for “Biotechnology,”

keratin-14 = test: Keratin-14 RT-PCR; conditions: human hair follicle dermal papilla cells, 24 hours, FIGS. 5a, 5b
Method: (§2) Human hair follicle dermal papilla cells were seeded at a density of 5×10^5 cells/well on 6-well plates, followed by incubation overnight. After changing into serum-free medium, the cells were treated with the peptides, followed by incubation for 24 hours, and then the wells were harvested to isolate RNA. After RNA quantification, cDNA synthesis was conducted using the cDNA synthesis kit (Intron, Korea), followed by PCR using PCR premix (Intron, Korea) and keratin-14 primers, and then electrophoresis was performed on 5% agarose gel to compare the mRNA expression level of the growth factor in respective sample treatment conditions.

[2] = tested on: melanocytes (B16F10 cell line); test: Melanin measurement assay; conditions: 72 hours, intracellular melanin, absorbance 490 nm, FIGS. 9a, 9b
Method: After melanocytes (B16F10 cell line) in 6-well plates were cultured in an incubator at 37° C. for 24 hours, the medium of each plate was removed and exchanged with a fresh medium, followed by treatment with the present peptide with different concentrations. After the incubation for 72 hours, the culture medium was removed, and the cells were taken off and then transferred into 1.5-ml tubes, followed by centrifugation at 13,000 rpm for 3 minutes. The supernatant was removed, and cell pellets were collected to observe melanin. Then, 150 μl of 2 M NaOH was added to the cell pellets to lyse intracellular melanin at 60° C. for 30 minutes. Then, 100 μl of the supernatant obtained from the lysis was added into each well of 96-well plates, and the absorbance was measured at 490 nm.

β-catenin = test: β-Catenin activity test (western blotting); conditions: human hair follicle dermal papilla cells, 15 and 30 minutes, nuclear and cytoplasmic proteins, FIGS. 2a, 2b
Method: as §1, with “plates,” for “plate,”, “15 and 30 minutes,” for “24 hours,”, “isolate nuclear and cytoplasmic proteins.” for “prepare cell lysate.”, “β-catenin” for “Bcl-2 and Bax antibodies”, “β-catenin” for “protein”

Bax = Bax western blotting; conditions: human hair follicle dermal papilla cells, 24 hours, FIGS. 4a, 4b
Method: as §1

TGF-β1 = TGF-β1 RT-PCR; conditions: human hair follicle dermal papilla cells, 24 hours, RT-PCR (mRNA); FIG. 7
Method: as §2, with “4×10^5” for “5×10^5”, “plate,” for “plates,”, “TGF-β1” for “keratin-14”, “in” for “in respective”

MITF [3] = test: Melanogenesis-related protein western blotting: MITF; conditions: B16F10 cell line, 72-hour incubation, FIG. 11
Method: (§3) Melanocytes (B16F10 cell line) were incubated on 6-well culture plates for 24 hours, and were treated with the peptides of the present invention with different concentrations. After 72-hour incubation, the cells were lysed, and the cells were subjected to western blotting using specific antibodies (two types, both from Santa Cruz Biotechnology, USA) to investigate the expression of MITF and tyrosinase, which are factors involved in melanogenesis.

TRP1 = test: Melanogenesis-related gene RT-PCR: TRP1; conditions: B16F10 cell line, 72 hours, FIG. 10 legend
MITF [4] = test: Melanogenesis-related gene RT-PCR: MITF; conditions: B16F10 cell line, 72 hours, FIG. 10
Method: (§4) Melanocytes (B16F10 cell line) were incubated on 6-well culture plates for 24 hours, and were treated with the peptides of the present invention with different concentrations. After RNA was extracted from the cells incubated for 72 hours, cDNA was prepared. PCR was performed by using respective primers specific to MITF and tyrosinase, which are involved in melanogenesis, and the expression changes of the respective genes were observed.

tyrosinase [5] = test: Melanogenesis-related protein western blotting: tyrosinase; conditions: B16F10 cell line, 72-hour incubation, FIG. 11
Method: as §3

KGF = KGF RT-PCR; conditions: human hair follicle dermal papilla cells, 24 hours, RT-PCR (mRNA); FIG. 6
Method: as §2, with “4×10^5” for “5×10^5”, “plate,” for “plates,”, “respective KGF and VEGF” for “keratin-14”, “levels” for “level”, “factors” for “factor”, “in” for “in respective”

VEGF = VEGF RT-PCR; conditions: human hair follicle dermal papilla cells, 24 hours, RT-PCR (mRNA); FIG. 6
Method: as §2, with “4×10^5” for “5×10^5”, “plate,” for “plates,”, “respective KGF and VEGF” for “keratin-14”, “levels” for “level”, “factors” for “factor”, “in” for “in respective”

tyrosinase [6] = test: Melanogenesis-related gene RT-PCR: tyrosinase; conditions: B16F10 cell line, 72 hours, FIG. 10
Method: as §4

MSX2 = MSX2 RT-PCR; conditions: human hair follicle dermal papilla cells, 24 hours, RT-PCR (mRNA); FIG. 8
Method: as §2, with “4×10^5” for “5×10^5”, “plate,” for “plates,”, “MSX2” for “keratin-14”, “in” for “in respective”

mRNA expression of tyrosinase enzyme (tyrosinase [6]) | Sequence | growth of human hair follicle dermal papilla cells [1] | phosphorylation level of GSK3β (GSK3β) | expression of the anti-apoptotic protein Bcl-2 (Bcl-2) | phosphorylation of ERK (ERK) | expression of PI3K (PI3K) | mRNA expression of keratin-14 (keratin-14) | melanogenesis in melanocytes [2] | activity of β-catenin (β-catenin) | expression of the apoptosis-related protein Bax (Bax) | expression of TGF-β1 (TGF-β1) | protein expression of MITF transcription factor (MITF [3]) | mRNA expression of TRP1 (TRP1) | mRNA expression of MITF transcriptional factor (MITF [4]) | protein expression of tyrosinase enzyme (tyrosinase [5]) | expression of KGF (KGF) | expression of VEGF (VEGF) | expression of MSX2 (MSX2)
 | KYLLVHRPYYRR [SEQ ID NO: 2] | stimulated in a dose-dependent manner | increased | increased | increased | increased | increased | increased | increased | decreased |  |  |  |  |  |  |  | 
increased | ACTSSQLRSC (cysteine pairing not given here) [SEQ ID NO: 1] | stimulated in a dose-dependent manner | increased | increased | increased | increased | increased | increased | increased | decreased | increased | increased | increases | increased | increased | increased | increased | increased
